Values joined by “and” are separate entries in the source; they are usually repeats but may differ in a detail not shown here. Equal entries are not always repeated. Inconclusive results and toxic doses are left out. Rule for the calls: active = survival T/C of 150% or more; inactive = T/C below 125% in these data.
Test system: CD2F1 mice, L1210 leukemia ip, survival T/C
Assay: NCI In Vivo Anticancer Drug Screen. Data for tumor model L1210 Leukemia (intraperitoneal) in CD2F1 (CDF1) mice
Settings: higher = longer survival
How it was run: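 Ratio T/C, where T is the treated-group value and C the vehicle-dosed control value, from mice implanted with a transplantable tumor.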

Measured: T/C

O=NN(CCCl)C(=O)NCCCl
active: endpoint: mean survival time, dose: 2.0 mg/kg/injection, schedule: Q01DX009 (ip), vehicle: other 177 % of control and 293 % of control | endpoint: mean survival time, dose: 3.8 mg/kg/injection, schedule: Q01DX001 (ip), vehicle: Klucel (hydroxypropylcellulose) (HPC) 150 % of control | endpoint: mean survival time, dose: 4.0 mg/kg/injection, schedule: Q01DX009 (ip), vehicle: other 201 % of control and 255 % of control | endpoint: mean survival time, dose: 4.0 mg/kg/injection, schedule: Q04DX003 (ip), vehicle: saline + alcohol 189 % of control | endpoint: mean survival time, dose: 7.5 mg/kg/injection, schedule: Q01DX001 (ip), vehicle: Klucel (hydroxypropylcellulose) (HPC) 164 % of control | endpoint: mean survival time, dose: 8.0 mg/kg/injection, schedule: Q01DX009 (ip), vehicle: other 183 % of control | endpoint: mean survival time, dose: 8.0 mg/kg/injection, schedule: Q04DX003 (ip), vehicle: saline + alcohol 230 % of control | endpoint: mean survival time, dose: 9.4 mg/kg/injection, schedule: Q01DX001 (ip), vehicle: saline + alcohol 156 % of control and 197 % of control | endpoint: mean survival time, dose: 10.0 mg/kg/injection, schedule: Q01DX001 (ip), vehicle: DMSO 158 % of control | endpoint: mean survival time, dose: 12.5 mg/kg/injection, schedule: Q01DX001 (ip), vehicle: saline + alcohol 152 % of control and 188 % of control and 212 % of control | endpoint: mean survival time, dose: 14.0 mg/kg/injection, schedule: Q01DX001 (ip), vehicle: saline 171 % of control | endpoint: mean survival time, dose: 14.0 mg/kg/injection, schedule: Q07DX003 (ip), vehicle: saline + alcohol 330 % of control | endpoint: mean survival time, dose: 14.0 mg/kg/injection, schedule: Q11HX001 (ip), vehicle: saline 171 % of control | endpoint: mean survival time, dose: 14.22 mg/kg/injection, schedule: Q01DX001 (ip), vehicle: saline + alcohol 172 % of control | endpoint: mean survival time, dose: 15.0 mg/kg/injection, schedule: Q01DX001 (ip), vehicle: Klucel (hydroxypropylcellulose) (HPC) 332 % of control | endpoint: mean survival time, dose: 15.0 mg/kg/injection, schedule: Q01DX001 (ip), vehicle: saline 172 % of control and 248 % of control | endpoint: mean survival time, dose: 16.0 mg/kg/injection, schedule: Q01DX001 (ip), vehicle: other 150 % of control | endpoint: mean survival time, dose: 16.0 mg/kg/injection, schedule: Q04DX003 (ip), vehicle: saline + alcohol 273 % of control | endpoint: mean survival time, dose: 18.8 mg/kg/injection, schedule: Q01DX001 (ip), vehicle: saline + alcohol 319 % of control | endpoint: mean survival time, dose: 20.0 mg/kg/injection, schedule: Q01DX001 (ip), vehicle: DMSO 270 % of control | endpoint: mean survival time, dose: 20.0 mg/kg/injection, schedule: Q01DX001 (ip), vehicle: Klucel (hydroxypropylcellulose) (HPC) 300 % of control | endpoint: mean survival time, dose: 20.0 mg/kg/injection, schedule: Q01DX001 (ip), vehicle: other 169 % of control | endpoint: mean survival time, dose: 20.0 mg/kg/injection, schedule: Q11HX001 (ip), vehicle: saline 198 % of control | endpoint: mean survival time, dose: 21.3 mg/kg/injection, schedule: Q01DX001 (ip), vehicle: saline + alcohol 248 % of control | endpoint: mean survival time, dose: 25.0 mg/kg/injection, schedule: Q01DX001 (ip), vehicle: saline + alcohol 335 % of control | endpoint: mean survival time, dose: 30.0 mg/kg/injection, schedule: Q01DX001 (ip), vehicle: distilled water + alcohol 196 % of control | endpoint: mean survival time, dose: 30.0 mg/kg/injection, schedule: Q01DX001 (ip), vehicle: saline 232 % of control | endpoint: mean survival time, dose: 30.0 mg/kg/injection, schedule: Q11HX001 (ip), vehicle: saline 232 % of control | endpoint: mean survival time, dose: 32.0 mg/kg/injection, schedule: Q01DX001 (ip), vehicle: other 246 % of control | endpoint: mean survival time, dose: 32.0 mg/kg/injection, schedule: Q01DX001 (ip), vehicle: saline 287 % of control | endpoint: mean survival time, dose: 33.0 mg/kg/injection, schedule: Q07DX003 (ip), vehicle: saline + alcohol 323 % of control | endpoint: mean survival time, dose: 40.0 mg/kg/injection, schedule: Q01DX001 (ip), vehicle: Klucel (hydroxypropylcellulose) (HPC) 311 % of control | endpoint: mean survival time, dose: 40.0 mg/kg/injection, schedule: Q01DX001 (ip), vehicle: other 311 % of control | endpoint: mean survival time, dose: 45.0 mg/kg/injection, schedule: Q01DX001 (ip), vehicle: saline 179 % of control | endpoint: mean survival time, dose: 45.0 mg/kg/injection, schedule: Q11HX001 (ip), vehicle: saline 180 % of control | endpoint: mean survival time, dose: 50.0 mg/kg/injection, schedule: Q01DX001 (ip), vehicle: saline + alcohol 291 % of control | endpoint: mean survival time, dose: 56.25 mg/kg/injection, schedule: Q01DX001 (ip), vehicle: saline + alcohol 252 % of control | endpoint: mean survival time, dose: 60.0 mg/kg/injection, schedule: Q01DX001 (ip), vehicle: distilled water + alcohol 222 % of control | endpoint: mean survival time, dose: 80.0 mg/kg/injection, schedule: Q01DX001 (ip), vehicle: saline + alcohol 168 % of control | endpoint: median survival time, dose: 1.75 mg/kg/injection, schedule: Q01DX009 (ip), vehicle: saline + alcohol 156 % of control | endpoint: median survival time, dose: 1.8 mg/kg/injection, schedule: Q01DX009 (ip), vehicle: saline + alcohol 169 % of control | endpoint: median survival time, dose: 3.0 mg/kg/injection, schedule: Q01DX009 (ip), vehicle: saline + alcohol 172 % of control | endpoint: median survival time, dose: 3.5 mg/kg/injection, schedule: Q01DX009 (ip), vehicle: saline + alcohol 182 % of control and 241 % of control and 246 % of control | endpoint: median survival time, dose: 5.0 mg/kg/injection, schedule: Q04DX003 (ip), vehicle: saline + alcohol 152 % of control | endpoint: median survival time, dose: 6.0 mg/kg/injection, schedule: Q01DX009 (ip), vehicle: saline + alcohol 256 % of control | endpoint: median survival time, dose: 7.0 mg/kg/injection, schedule: Q01DX009 (ip), vehicle: saline + alcohol 218 % of control and 259 % of control | endpoint: median survival time, dose: 8.0 mg/kg/injection, schedule: Q01DX001 (ip), vehicle: saline + alcohol 153 % of control | endpoint: median survival time, dose: 10.0 mg/kg/injection, schedule: Q01DX001 (ip), vehicle: Klucel (hydroxypropylcellulose) (HPC) 171 % of control and 197 % of control | endpoint: median survival time, dose: 10.0 mg/kg/injection, schedule: Q01DX001 (ip), vehicle: saline + alcohol 156 % of control and 178 % of control | endpoint: median survival time, dose: 10.0 mg/kg/injection, schedule: Q01DX009 (ip), vehicle: saline 176 % of control | endpoint: median survival time, dose: 10.0 mg/kg/injection, schedule: Q03DX003 (ip), vehicle: DMSO 294 % of control | endpoint: median survival time, dose: 10.0 mg/kg/injection, schedule: Q04DX003 (ip), vehicle: saline + alcohol 188 % of control | endpoint: median survival time, dose: 11.5 mg/kg/injection, schedule: Q01DX001 (ip), vehicle: saline + alcohol 165 % of control | endpoint: median survival time, dose: 12.0 mg/kg/injection, schedule: Q01DX009 (ip), vehicle: saline + alcohol 168 % of control | endpoint: median survival time, dose: 14.0 mg/kg/injection, schedule: Q01DX009 (ip), vehicle: saline + alcohol 158 % of control and 162 % of control and 185 % of control | endpoint: median survival time, dose: 14.0 mg/kg/injection, schedule: Q07DX003 (ip), vehicle: saline + alcohol 273 % of control | endpoint: median survival time, dose: 14.4 mg/kg/injection, schedule: Q01DX001 (ip), vehicle: saline + alcohol 152 % of control and 157 % of control | endpoint: median survival time, dose: 15.0 mg/kg/injection, schedule: Q01DX009 (ip), vehicle: saline 164 % of control | endpoint: median survival time, dose: 16.0 mg/kg/injection, schedule: Q01DX001 (ip), vehicle: saline + alcohol 255 % of control | endpoint: median survival time, dose: 19.2 mg/kg/injection, schedule: Q01DX001 (ip), vehicle: saline + alcohol 192 % of control | endpoint: median survival time, dose: 20.0 mg/kg/injection, schedule: Q01DX001 (ip), vehicle: Klucel (hydroxypropylcellulose) (HPC) 226 % of control and 234 % of control | endpoint: median survival time, dose: 24.0 mg/kg/injection, schedule: Q01DX001 (ip), vehicle: saline + alcohol 152 % of control and 186 % of control | endpoint: median survival time, dose: 32.0 mg/kg/injection, schedule: Q01DX001 (ip), vehicle: saline + alcohol 186 % of control | endpoint: median survival time, dose: 40.0 mg/kg/injection, schedule: Q01DX001 (ip), vehicle: Klucel (hydroxypropylcellulose) (HPC) 343 % of control | endpoint: median survival time, dose: 40.0 mg/kg/injection, schedule: Q04DX003 (ip), vehicle: saline + alcohol 164 % of control | endpoint: median survival time, dose: 66.7 mg/kg/injection, schedule: Q01DX001 (ip), vehicle: saline + alcohol 179 % of control and 184 % of control | endpoint: median survival time, dose: 160.0 mg/kg/injection, schedule: Q01DX001 (ip), vehicle: Klucel (hydroxypropylcellulose) (HPC) 168 % of control
inactive: endpoint: mean survival time, dose: 3.75 mg/kg/injection, schedule: Q01DX001 (ip), vehicle: distilled water + alcohol 115 % of control | endpoint: mean survival time, dose: 3.75 mg/kg/injection, schedule: Q01DX001 (ip), vehicle: saline + alcohol 114 % of control | endpoint: mean survival time, dose: 4.0 mg/kg/injection, schedule: Q01DX001 (ip), vehicle: saline + alcohol 113 % of control and 115 % of control | endpoint: mean survival time, dose: 5.0 mg/kg/injection, schedule: Q01DX001 (ip), vehicle: saline 113 % of control | endpoint: mean survival time, dose: 6.25 mg/kg/injection, schedule: Q01DX001 (ip), vehicle: saline + alcohol 119 % of control and 120 % of control | endpoint: mean survival time, dose: 7.5 mg/kg/injection, schedule: Q01DX001 (ip), vehicle: distilled water + alcohol 123 % of control | endpoint: median survival time, dose: 0.9 mg/kg/injection, schedule: Q01DX009 (ip), vehicle: saline + alcohol 116 % of control and 122 % of control | endpoint: median survival time, dose: 24.0 mg/kg/injection, schedule: Q01DX009 (ip), vehicle: saline + alcohol 124 % of control | endpoint: median survival time, dose: 80.0 mg/kg/injection, schedule: Q01DX001 (ip), vehicle: Klucel (hydroxypropylcellulose) (HPC) 117 % of control | endpoint: median survival time, dose: 80.0 mg/kg/injection, schedule: Q01DX001 (ip), vehicle: saline 123 % of control

From PubChem BioAssay AID256 (DTP/NCI, 2004)
